Patent US11680061B2, “Crystal forms C and E of pyrazin-2(1H)-one compound and preparation method therefor” (ZHANGZHOU PIEN TZE HUANG PHARMACEUTICAL CO., LTD., priority 2019, dated 2023)

Columns and labels:
[1] = Pharmacokinetic evaluation in mice, single intragastric administration; assay type: in vivo, CD-1 mice (male)
Procedure: Experimental Purposes: To Test the Pharmacokinetics of the Compound in Mice
CD-1 mice (male), vehicle (0.5% (w/v) methylcellulose 0.5% (v/v) Tween 80 aqueous solution), trifluoroacetate salt of compound 0027.
The vehicle was 0.5% (w/v) methylcellulose and 0.5% (v/v) Tween 80 aqueous solution, and the formulation was prepared according to the following procedure: […]
Preparation of formulation for intragastric administration: […]
Animals in groups 1 and 2 were given 5 mg/mL and 30 mg/mL compound by single intragastric administration, respectively, with a dose volume of 10 mL/kg.
The animals were weighed before administration, and the administration volume was calculated according to the body weight.
Whole blood samples (30 μL) were collected at specified times (0.25, 0.5, 1, 2, 4, 6, 8, 24 hours) by saphenous vein collection and the actual time of collection was recorded in the test record. The acceptable error for the collection time points was ±1 minute for time points within 1 hour of administration and ±5% of the theoretical time for other time points.
All blood samples were immediately transferred to labeled commercial centrifuge tubes containing K2-EDTA. […] And the pharmacokinetic parameters were calculated, experimental result: See Table 5.

[2] = Hygroscopicity study by dynamic vapor sorption (DVS); assay type: physicochemical; conditions: 25° C. and 80% RH
Procedure: Dynamic Vapor Sorption (DVS) Method in the Present Disclosure
Instrument model: SMS DVS Advantage dynamic vapor sorption instrument
Test conditions: samples (10 mg to 15 mg) were placed in a DVS sample tray for testing.
Detailed DVS parameters are as follows:
Balance: dm/dt=0.01%/min (shortest: 10 min, longest: 180 min)
Drying: 120 min under 0% RH
RH (%) test step range: 0% to 90% to 0%
The evaluation classification of hygroscopicity was as follows:
10 to 15 mg of the crystal form C of the compound of formula (II) was placed in the DVS sample tray for testing.
10 to 15 mg of the crystal form E of the compound of formula (II) was placed in the DVS sample tray for testing.

Tlast ([1]; CD-1 mice, intragastric, 300 mpk, plasma) [h] | pharmacokinetic index in mice ([1]; conclusion in words) | Classification of hygroscopicity [2] | ΔW, hygroscopic weight gain [2] [%] | Structure (SMILES)
24.0 | good |  |  | COc1cc(OC)c(Cl)c(-c2nc(-c3nc(-c4cn(C)nc4C)cnc3N)cn(C)c2=O)c1
 |  | slightly hygroscopic | 1.1 | COc1cc(OC)c(Cl)c(-c2nc(-c3nc(-c4cn(C)nc4C)cnc3N)cn(C)c2=O)c1 [crystal form C of the compound of formula (II)]
 |  | slightly hygroscopic | 0.5 | COc1cc(OC)c(Cl)c(-c2nc(-c3nc(-c4cn(C)nc4C)cnc3N)cn(C)c2=O)c1 [crystal form E of the compound of formula (II)]
